The results in this text go back to the NIST ThermoML archive (doi:10.1016/j.fluid.2013.08.022).

A short description of the series: wn = mass fraction of the nth substance listed. The settings on record: 298.15 K, 101 kPa, Liquid; for viscosity: Cone and plate viscometry; for mass density: Vibrating tube method.

Take `CC#N` [acetonitrile] + CCOC(=O)OCC: under “w1 = 1”, the viscosity (commonly the resistance of a fluid to flow) is recorded as 0.34 mPa·s and the mass density (in general, the mass of a sample divided by its volume) worked out at 776.85 kg/m3.

Regarding `CCOC(=O)OCC` [diethyl carbonate] + CC#N, the viscosity reads like this: (w2 = 0) 0.74 mPa·s; (w2 = 0.25) 0.65 mPa·s; (w2 = 0.5) 0.57 mPa·s; (w2 = 0.75) 0.45 mPa·s. The mass density by setting is: (w2 = 0) 969.17 kg/m3; (w2 = 0.25) 921.12 kg/m3; (w2 = 0.5) 873.25 kg/m3; (w2 = 0.75) 824.87 kg/m3.
